From article PMC5573416, “Inhibiting mycobacterial tryptophan synthase by targeting the inter-subunit interface” (Scientific Reports, 2017) come the findings set out here.

The target of assay [1] is T1, Mtb tryptophan synthase (TrpA and TrpB-F188L) (Mycobacterium tuberculosis, UniProt P9WFX9+P9WFY1, F199L). The format is biochemical.
In assay [2] the target is T1, Mtb tryptophan synthase (TrpA and TrpB-F188L). The format is biochemical. The source holds these as a separate data set.

For the compound `CNS(=O)(=O)c1ccc2c(c1)CCN2C(=O)c1ccccc1F` [Compound 2], in assay [1], the “L-tryptophan synthesis in presence of inhibitor (TLC)” value was “relatively the same amount of tryptophan”.

`CNS(=O)(=O)c1ccc2c(c1)CCN2C(=O)c1ccc(C)s1` [Compound 3]: the “L-tryptophan produced in presence of inhibitor (GF-HPLC)” value in assay [2] was “L-tryptophan was produced”.
